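Cells were grown in 96-well plates and exposed to each compound for 48 hours at five concentrations; endpoints were interpolated linearly between bracketing concentrations, or set to the highest concentration if not reached. GI50 = concentration required for 50% inhibition of growth.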 Activity calls are given as the source filed them. No stated cut-off is given here; in the data, active = GI50 up to about 1.1 µM and inactive = higher.
Experiments:
Assay in all cases: inhibition of tumour cell growth, NCI panel, 48 h
SNB-19 = tested on: SNB-19
MOLT-4 = tested on: MOLT-4
MCF7 = tested on: MCF7
EKVX = tested on: EKVX
COLO 205 = tested on: COLO 205
CAKI-1 = tested on: CAKI-1
HCT-15 = tested on: HCT-15
786-0 = tested on: 786-0
HCC 2998 = tested on: HCC 2998
LOX IMVI = tested on: LOX IMVI
SF-539 = tested on: SF-539
OVCAR-4 = tested on: OVCAR-4
IGROV-1 = tested on: IGROV-1
PC-3 = tested on: PC-3
SF-295 = tested on: SF-295
U-251 = tested on: U-251
HOP-92 = tested on: HOP-92
HOP-62 = tested on: HOP-62
HT-29 = tested on: HT-29
BT-549 = tested on: BT-549
SF-268 = tested on: SF-268
UACC-62 = tested on: UACC-62
SK-MEL-2 = tested on: SK-MEL-2
A498 = tested on: A498
SW-620 = tested on: SW-620
MDA-MB-435 = tested on: MDA-MB-435
SR = tested on: SR
SN12C = tested on: SN12C
T47D = tested on: T47D
UO-31 = tested on: UO-31
M14 = tested on: M14
TK-10 = tested on: TK-10
SK-OV-3 = tested on: SK-OV-3
MDA-MB-231 = tested on: MDA-MB-231
SNB-75 = tested on: SNB-75
NCI-H226 = tested on: NCI-H226
MDA-N = tested on: MDA-N
OVCAR-5 = tested on: OVCAR-5
A549 = tested on: A549
DU-145 = tested on: DU-145
OVCAR-8 = tested on: OVCAR-8
OVCAR-3 = tested on: OVCAR-3
Hs-578T = tested on: Hs-578T
NCI-H23 = tested on: NCI-H23
NCI-H522 = tested on: NCI-H522
HL-60 = tested on: HL-60
K562 = tested on: K562
SK-MEL-28 = tested on: SK-MEL-28
NCI-H460 = tested on: NCI-H460
ACHN = tested on: ACHN
HCT-116 = tested on: HCT-116
SK-MEL-5 = tested on: SK-MEL-5
NCI/ADR-RES = tested on: NCI/ADR-RES
UACC-257 = tested on: UACC-257
KM12 = tested on: KM12
RXF 393 = tested on: RXF 393
RPMI-8226 = tested on: RPMI-8226
Malme-3M = tested on: Malme-3M
CCRF-CEM = tested on: CCRF-CEM
DMS-273 = tested on: DMS-273
LXFL 529 = tested on: LXFL 529
DMS-114 = tested on: DMS-114
DLD-1 = tested on: DLD-1
HOP-18 = tested on: HOP-18
M19-MEL = tested on: M19-MEL
KM-20L2 = tested on: KM-20L2

For `CC1CCC2C(C)C3C(CC4C5CC=C6CC(OC7OC(CO)C(O)C(OC8OC(CO)C(O)C(O)C8O)C7OC7OC(C)C(O)C(O)C7O)CCC6(C)C5CCC43C)N2C1` (stereo not drawn), the GI50 (SNB-19) was 10.5 µM (inactive), the GI50 (MOLT-4) was 28.6 µM (inactive) and the GI50 (MCF7) was 13.8 µM (inactive). The GI50 (EKVX) was 9.27 µM (inactive), the GI50 (COLO 205) was 16.7 µM (inactive) and the GI50 (CAKI-1) was 11.3 µM (inactive). For the same compound, the GI50 (HCT-15) was 17.3 µM, the GI50 (786-0) was 9.42 µM (inactive) and the GI50 (HCC 2998) was 18.1 µM (inactive). The GI50 (LOX IMVI) was 15 µM (inactive), the GI50 (SF-539) was 8.83 µM (inactive) and the GI50 (OVCAR-4) was 8.13 µM (inactive). For the same compound, the GI50 (IGROV-1) was 12.4 µM (inactive), the GI50 (PC-3) was 14.9 µM (inactive) and the GI50 (SF-295) was 10.2 µM (inactive). The GI50 (U-251) was 16 µM (inactive), the GI50 (HOP-92) was 17.5 µM (inactive) and the GI50 (HOP-62) was 17.3 µM (inactive). For the same compound, the GI50 (HT-29) was 12 µM (inactive), the GI50 (BT-549) was 16.5 µM (inactive) and the GI50 (SF-268) was 15.9 µM (inactive). For the same compound, the GI50 (UACC-62) was 13.8 µM (inactive), the GI50 (SK-MEL-2) was 19.5 µM (inactive) and the GI50 (A498) was 17.5 µM (inactive). For the same compound, the GI50 (SW-620) was 15.6 µM (inactive), the GI50 (MDA-MB-435) was 9.12 µM (inactive) and the GI50 (SR) was 15.1 µM (inactive). For the same compound, the GI50 (SN12C) was 11.1 µM (inactive), the GI50 (T47D) was 19.3 µM (inactive) and the GI50 (UO-31) was 6.37 µM (inactive). For the same compound, the GI50 (M14) was 4.67 µM (inactive), the GI50 (TK-10) was 16.3 µM (inactive) and the GI50 (SK-OV-3) was 16 µM (inactive). The GI50 (MDA-MB-231) was 13.6 µM (inactive), the GI50 (SNB-75) was 9.57 µM (inactive) and the GI50 (NCI-H226) was 20.8 µM (inactive). The GI50 (MDA-N) was 10.7 µM (inactive), the GI50 (OVCAR-5) was 14.3 µM (inactive) and the GI50 (A549) was 7.05 µM (inactive). The GI50 (DU-145) was 18.9 µM (inactive), the GI50 (OVCAR-8) was 15 µM (inactive) and the GI50 (OVCAR-3) was 17.4 µM (inactive). For the same compound, the GI50 (Hs-578T) was 13.7 µM (inactive), the GI50 (NCI-H23) was 14.7 µM (inactive) and the GI50 (NCI-H522) was 15.1 µM (inactive). For the same compound, the GI50 (HL-60) was 8.24 µM (inactive), the GI50 (K562) was 16 µM (inactive) and the GI50 (SK-MEL-28) was 7.94 µM (inactive). For the same compound, the GI50 (NCI-H460) was 18.5 µM (inactive), the GI50 (ACHN) was 8.89 µM (inactive) and the GI50 (HCT-116) was 11.1 µM (inactive). For the same compound, the GI50 (SK-MEL-5) was 18.1 µM (inactive), the GI50 (NCI/ADR-RES) was 17.9 µM (inactive) and the GI50 (UACC-257) was 16.1 µM (inactive). The GI50 (KM12) was 14.8 µM (inactive), the GI50 (RXF 393) was 10.2 µM (inactive) and the GI50 (RPMI-8226) was 19.9 µM (inactive). For the same compound, the GI50 (Malme-3M) was 27.7 µM (inactive) and the GI50 (CCRF-CEM) was 9.66 µM (inactive).
`Cc1c2cc[n+](C)cc2c(C)c2c1[nH]c1ccc(OCC(F)(F)F)cc12` was tested, and the GI50 (SNB-19) was 0.718 µM (active), the GI50 (MOLT-4) was 5.12 µM (inactive) and the GI50 (COLO 205) was 0.94 µM (active). For the same compound, the GI50 (DMS-273) was 1.49 µM (inactive), the GI50 (786-0) was 0.38 µM (active) and the GI50 (HCC 2998) was 7.14 µM (inactive). The GI50 (LXFL 529) was 0.447 µM (active), the GI50 (SF-539) was 1.07 µM (active) and the GI50 (OVCAR-4) was 4.61 µM (inactive). For the same compound, the GI50 (IGROV-1) was 2.77 µM (inactive), the GI50 (SF-295) was 0.275 µM (active) and the GI50 (U-251) was 0.275 µM (active). For the same compound, the GI50 (HOP-92) was 2.08 µM (inactive), the GI50 (HOP-62) was 0.771 µM (active) and the GI50 (HT-29) was 4.11 µM (inactive). For the same compound, the GI50 (DMS-114) was 1.47 µM (inactive), the GI50 (SF-268) was 0.286 µM (active) and the GI50 (UACC-62) was 12.2 µM (inactive). For the same compound, the GI50 (SK-MEL-2) was 4.62 µM (inactive), the GI50 (DLD-1) was 1.36 µM (inactive) and the GI50 (SW-620) was 3.01 µM (inactive). For the same compound, the GI50 (SR) was 3.37 µM (inactive), the GI50 (SN12C) was 0.164 µM (active) and the GI50 (SK-OV-3) was 3.08 µM (inactive). For the same compound, the GI50 (NCI-H226) was 0.375 µM (active), the GI50 (HOP-18) was 3.72 µM (inactive) and the GI50 (M19-MEL) was 2.09 µM (inactive). For the same compound, the GI50 (A549) was 2.12 µM (inactive), the GI50 (OVCAR-8) was 0.467 µM (active) and the GI50 (OVCAR-3) was 4.72 µM (inactive). The GI50 (NCI-H23) was 1.49 µM (inactive), the GI50 (NCI-H522) was 1.57 µM (inactive) and the GI50 (KM-20L2) was 3.98 µM (inactive). The GI50 (K562) was 3.83 µM (inactive), the GI50 (NCI-H460) was 2.25 µM (inactive) and the GI50 (HCT-116) was 3.37 µM (inactive). For the same compound, the GI50 (SK-MEL-5) was 1.73 µM (inactive), the GI50 (KM12) was 3.41 µM (inactive) and the GI50 (Malme-3M) was 1.77 µM (inactive). The GI50 (CCRF-CEM) was 7.31 µM (inactive).
In the case of `N/C(=N\N/C=C1\C=Nc2cc(C(F)(F)F)ccc2C1=O)NO`, the GI50 (SNB-19) is reported as > 10 µM (inactive), the GI50 (MOLT-4) is reported as > 10 µM (inactive) and the GI50 (MCF7) is reported as > 10 µM (inactive). For the same compound, the GI50 (EKVX) was > 10 µM (inactive), the GI50 (COLO 205) was > 10 µM (inactive) and the GI50 (CAKI-1) was > 10 µM (inactive). For the same compound, the GI50 (HCT-15) was greater than 10 µM, the GI50 (786-0) was > 10 µM (inactive) and the GI50 (HCC 2998) was > 10 µM (inactive). For the same compound, the GI50 (LOX IMVI) was > 10 µM (inactive), the GI50 (SF-539) was > 10 µM (inactive) and the GI50 (OVCAR-4) was > 10 µM (inactive). For the same compound, the GI50 (IGROV-1) was > 10 µM (inactive), the GI50 (PC-3) was > 10 µM (inactive) and the GI50 (SF-295) was > 10 µM (inactive). The GI50 (U-251) was > 10 µM (inactive), the GI50 (HOP-92) was > 10 µM (inactive) and the GI50 (HOP-62) was > 10 µM (inactive). For the same compound, the GI50 (HT-29) was > 10 µM (inactive), the GI50 (BT-549) was > 10 µM (inactive) and the GI50 (SF-268) was > 10 µM (inactive). For the same compound, the GI50 (UACC-62) was > 10 µM (inactive), the GI50 (SK-MEL-2) was > 10 µM (inactive) and the GI50 (A498) was > 10 µM (inactive). For the same compound, the GI50 (SW-620) was > 10 µM (inactive), the GI50 (MDA-MB-435) was > 10 µM (inactive) and the GI50 (SR) was > 10 µM (inactive). The GI50 (SN12C) was > 10 µM (inactive), the GI50 (T47D) was > 10 µM (inactive) and the GI50 (UO-31) was > 10 µM (inactive). The GI50 (M14) was > 10 µM (inactive), the GI50 (TK-10) was > 10 µM (inactive) and the GI50 (SK-OV-3) was > 10 µM (inactive). The GI50 (MDA-MB-231) was > 10 µM (inactive), the GI50 (SNB-75) was 0.148 µM (active) and the GI50 (NCI-H226) was > 10 µM (inactive). The GI50 (MDA-N) was > 10 µM (inactive), the GI50 (OVCAR-5) was > 10 µM (inactive) and the GI50 (A549) was > 10 µM (inactive). The GI50 (DU-145) was > 10 µM (inactive), the GI50 (OVCAR-8) was > 10 µM (inactive) and the GI50 (OVCAR-3) was > 10 µM (inactive). The GI50 (Hs-578T) was > 10 µM (inactive), the GI50 (NCI-H23) was > 10 µM (inactive) and the GI50 (NCI-H522) was > 10 µM (inactive). For the same compound, the GI50 (HL-60) was > 10 µM (inactive), the GI50 (K562) was 7.67 µM (inactive) and the GI50 (SK-MEL-28) was > 10 µM (inactive). For the same compound, the GI50 (NCI-H460) was > 10 µM (inactive), the GI50 (ACHN) was > 10 µM (inactive) and the GI50 (HCT-116) was > 10 µM (inactive). For the same compound, the GI50 (SK-MEL-5) was > 10 µM (inactive), the GI50 (NCI/ADR-RES) was > 10 µM (inactive) and the GI50 (UACC-257) was > 10 µM (inactive). For the same compound, the GI50 (KM12) was 0.001 µM (active), the GI50 (RXF 393) was > 10 µM (inactive) and the GI50 (RPMI-8226) was > 10 µM (inactive). For the same compound, the GI50 (Malme-3M) was > 10 µM (inactive) and the GI50 (CCRF-CEM) was > 10 µM (inactive).

— ChEMBL document CHEMBL1201862, “PubChem BioAssay data set” (2004)
